In assay [1] the test system is KKAy mice. As to the kind of experiment: Rearing experiment of KKAy mice: HbA1c level. It counts as in vivo. The settings on record: Experiment 5, FIG. 12; 0.035 mass % in AIN-93G feed; pair feeding. How it is done:
(§1) KKAy mice at 3 weeks of age were purchased from CLEA Japan, Inc. as diabetes onset mode mice, and experimentally reared after preliminary rearing for 7 days. Herein, the conditions of rearing the mice were as follows. […]
(§2) AIN-93G was used for base experimental feed. […]
Note, the Yuzu seed extract used in Experiment 1 was prepared by heat-drying the Yuzu seeds at 100° C. for 720 min, subsequently grinding the dried Yuzu seeds so that the particle size (i.e., diameter) became about 1 mm or less, and performing extraction at an ambient temperature for 10 min using 10-fold volume of 100% ethanol to the ground Yuzu seeds. […]
After initiating the rearing experiment, blood was collected through a tail vain at the time from 9 am to 11 am at a day after the predetermined days passed. Then, the collected blood was analyzed by blood-glucose analyzers (HORIBA, Ltd. Antsence III and Bayer DCA2000) to measure a blood-glucose level and an HbA1c level. The measured blood-glucose and HbA1c levels were processed to calculate the mean value of each group.
Note, all the HbA1c levels thus measured and calculated in the experiment are represented by the JDS values. […]

Assay [2] has as its system KKAy mice. In words: Rearing experiment of KKAy mice: blood-glucose level. The class given is in vivo. The conditions noted are these: Experiment 5, FIG. 11; 0.035 mass % in AIN-93G feed; pair feeding; day 28. How it is done:
as §1, §2
Note, the Yuzu seed extract used in Experiment 1 was prepared by heat-drying the Yuzu seeds at 100° C. for 720 min, subsequently grinding the dried Yuzu seeds so that the particle size (i.e., diameter) became about 1 mm or less, and performing extraction at an ambient temperature for 10 min using 10-fold volume of 100% ethanol to the ground Yuzu seeds.
In each of a control group (i.e., administered with AIN-93G alone including no other materials), a Yuzu seed extract (1% mass %) added group, a pioglitazone (0.03 mass %) added group, 10 mice were preliminarily reared for 7 days, and subsequently reared with the experimental feed totally for 28 days.
After initiating the rearing experiment, blood was collected through a tail vain at the time from 9 am to 11 am at a day after the predetermined days passed. Then, the collected blood was analyzed by blood-glucose analyzers (HORIBA, Ltd. Antsence III and Bayer DCA2000) to measure a blood-glucose level and an HbA1c level. The measured blood-glucose and HbA1c levels were processed to calculate the mean value of each group. […]

Consider `CC1(C)OC(=O)C=C[C@]2(C)[C@H]3CC[C@@]4(C)[C@H](c5ccoc5)OC(=O)[C@H]5O[C@]54[C@]3(C)C(=O)C[C@@H]12` [obacunone, Obacunone], for which the “HbA1c levels compared to control group” value in the assay with KKAy mice [1] is given as “lower than those of the control group”. For the same compound, in the assay with KKAy mice [2], the “blood-glucose level lower than that of the control group (difference)” value is given as “about 50 mg/dl”.

Source of the values: patent publication US11253567B2, “Citrus seed extract-containing composition, food, drug, and method for producing citrus seed extract-containing composition” (Kikkoman Corporation, priority 2014, dated 2022).
